{"source": "patent US4874898A", "about": "“Novel substituted anthrasteroid derivatives” (Shionogi and Co., Ltd. Patent Department, priority 1987, dated 1989)", "key": {"seminal vesicles [1]": {"tested_on": "seminal vesicles", "test": "Assay for Antiandrogenic Activity (Subcutaneous administration), seminal vesicle weight", "assay_type": "in vivo, SD-JCL male rats (castrated)", "details": "for I. R. (%) A* (Inhibition rate, seminal vesicle) / Weight (Mean mg ± S.E.) A* (seminal vesicle): 7 days; for I. R. (%) A* (Inhibition rate, seminal vesicle): with testosterone propionate 0.02 mg/day, Table 1-1; for Weight (Mean mg ± S.E.) A* (seminal vesicle) / I. R. (%) A* (seminal vesicle): Table 1-2", "experimental": "(§1) Assay for Antiandrogenic Activity (Subcutaneous administration)\n(§2) The three week-old SD-JCL male rats were castrated and the drug treatment was started from three days after the castration. The rats were divided into groups; one group consists of six rats. One group was intact with any drug, the 2nd group was treated subcutaneously with a solution or suspension of 0.02 mg of testosterone propionate in sesame oil a day, and the other groups was treated with 0.1 to 3 mg of the test compound and 0.02 mg of testosterone propionate in sesame oil a day. This treatment was carried out for 7 days, successively. The rats were killed next day of the last treatment and the seminal vesicles and ventral prostates were taken out and weighed. Antiandrogenic activity of the test compounds were estimated as […] of seminal vesicles and ventral prostates induced by testosterone propionate."}, "ventral prostates [2]": {"tested_on": "ventral prostates", "test": "Assay for Antiandrogenic Activity (Subcutaneous administration), ventral prostate weight", "assay_type": "in vivo, SD-JCL male rats (castrated)", "details": "for I. R. (%) B* (Inhibition rate, prostate) / Weight (Mean mg ± S.E.) B* (prostate): 7 days; for I. R. (%) B* (Inhibition rate, prostate): with testosterone propionate 0.02 mg/day, Table 1-1; for Weight (Mean mg ± S.E.) B* (prostate) / I. R. (%) B* (prostate): Table 1-2", "experimental": "as §1, §2"}, "ventral prostates [3]": {"tested_on": "ventral prostates", "test": "Assay for Antiandrogenic Activity (Oral Administration), ventral prostate weight", "assay_type": "in vivo, SD-JCL male rats (castrated)", "details": "3 mg orally, 7 days, with testosterone propionate 0.02 mg/day s.c.; Table 2", "experimental": "(§3) Assay for Antiandrogenic Activity (Oral Administration)\n(§4) The three week-old SD-JCL male rats were castrated and the drug treatment was started from three days after the castration. The rats were divided into groups; one group consists of six rats. One group was treated with 0.02 mg of testosterone propionate in sesame oil a day by injecting subcutaneously and the other groups were treated with 0.02 mg of testosterone propionate and simultaneously treated orally with a suspension of 3 mg of the test compound in sesame oil. The castrated control group was treated with sesame oil. This treatment was continued for 7 days, successively. The rats were killed 24 hours after the last treatment and the seminal vesicles and ventral prostates were taken out and weighed."}, "seminal vesicles [4]": {"tested_on": "seminal vesicles", "test": "Assay for Antiandrogenic Activity (Oral Administration), seminal vesicle weight", "assay_type": "in vivo, SD-JCL male rats (castrated)", "details": "3 mg orally, 7 days, with testosterone propionate 0.02 mg/day s.c.; Table 2", "experimental": "as §3, §4"}, "[5]": {"tested_on": "Shionogi-carcinoma 115 (SC-115)", "test": "Assay for growth inhibitory activity against androgen-dependent tumor (Shionogi-carcinoma 115)", "assay_type": "in vivo, mice (castrated)", "details": "14 days", "text": "The followings show an assay for antiandrogenic activity against androgen-dependent tumor, Shionogi-carcinoma 115 (SC-115). The SC-115 is a tumor cell which grows in the presence of an androgen and its hormone dependency is widely known as a prostatic cancer model. Therefore, the androgenic activity is also estimated by examining the growth inhibition effect against this tumor.\nAssay for growth inhibitory activity against androgen-dependent tumor (Shionogi-carcinoma 115)\nThe six week-old mice were castrated and […] of Shionogi-carcinoma tumor pieces was grafted into the back subcutaneously on the fifth day from the castration. The grafted mice were divided into groups, each consisting of seven mice, and the drug treatment was started immediately after the graft. One group was intact with any drug, and the 2nd group was treated subcutaneously with 0.1 mg of testosterone propionate a day. The other groups were treated subcutaneously with a suspension of 0.1 mg of testosterone propionate and 0.1 to 2.0 mg per day of test compounds a day as a conventional steroid solution. This treatment was carried out for 14 days, successively. The mice were killed next day of the last treatment and the tumor was taken out to weigh."}, "[6]": {"details": "0.1 mg/day s.c., with testosterone propionate 0.1 mg/day"}, "[7]": {"details": "0.5 mg/day s.c., with testosterone propionate 0.1 mg/day"}, "[8]": {"details": "2.0 mg/day s.c., with testosterone propionate 0.1 mg/day"}, "[9]": {"details": "testosterone propionate alone, 0.02 mg/day s.c."}, "[10]": {"details": "0.1 mg/day s.c., with testosterone propionate"}, "[11]": {"details": "0.3 mg/day s.c., with testosterone propionate"}, "[12]": {"details": "1 mg/day s.c., with testosterone propionate"}, "[13]": {"details": "3 mg/day s.c., with testosterone propionate"}}}
{"smiles": "CC1C2=CC(=O)CCC2CC2C1CCC1(C)C(O)CCC21", "note": "(stereo not shown)", "values": [{"measurement": "I. R. (%) A* (Inhibition rate, seminal vesicle)", "setting": "seminal vesicles [1]; 1 mg/day s.c.", "result": 25, "unit": "%"}]}
{"smiles": "CC1=C2C=CC3(C)C(O)CCC3C2CC2CCC(=O)C=C12", "note": "(stereo not shown)", "values": [{"measurement": "I. R. (%) B* (Inhibition rate, prostate)", "setting": "ventral prostates [2]; 1 mg/day s.c.", "result": 44, "unit": "%"}, {"measurement": "I. R. (%) A* (Inhibition rate, seminal vesicle)", "setting": "seminal vesicles [1]; 1 mg/day s.c.", "result": 69, "unit": "%"}]}
{"smiles": "CC1=C2CCC3(C)C(=O)CCC3C2CC2CCC(=O)C=C12", "note": "(stereo not shown)", "values": [{"measurement": "I. R. (%) B* (Inhibition rate, prostate)", "setting": "ventral prostates [2]; 1 mg/day s.c.", "result": 42, "unit": "%"}, {"measurement": "I. R. (%) A* (Inhibition rate, seminal vesicle)", "setting": "seminal vesicles [1]; 1 mg/day s.c.", "result": 57, "unit": "%"}]}
{"smiles": "CCC(=O)OC1CCC2C3CC4CCC(=O)C=C4C(C)=C3CCC12C", "note": "(stereo not shown)", "values": [{"measurement": "I. R. (%) B* (Inhibition rate, prostate)", "setting": "ventral prostates [2]; 1 mg/day s.c.", "result": 50, "unit": "%"}, {"measurement": "I. R. (%) A* (Inhibition rate, seminal vesicle)", "setting": "seminal vesicles [1]; 1 mg/day s.c.", "result": 74, "unit": "%"}]}
{"smiles": "CC1=C2CCC3(C)C(CCC3(C)O)C2CC2CCC(=O)C=C12", "note": "(stereo not shown)", "values": [{"measurement": "I. R. (%) B* (Inhibition rate, prostate)", "setting": "ventral prostates [2]; 1 mg/day s.c.", "result": 41, "unit": "%"}, {"measurement": "I. R. (%) A* (Inhibition rate, seminal vesicle)", "setting": "seminal vesicles [1]; 1 mg/day s.c.", "result": 67, "unit": "%"}]}
{"smiles": "CC1=C2CCC3(C)C(O)C(F)CC3C2CC2CCC(=O)C=C12", "note": "(stereo not shown)", "values": [{"measurement": "I. R. (%) B* (Inhibition rate, prostate)", "setting": "ventral prostates [2]; 1 mg/day s.c.", "result": 52, "unit": "%"}, {"measurement": "I. R. (%) A* (Inhibition rate, seminal vesicle)", "setting": "seminal vesicles [1]; 1 mg/day s.c.", "result": 77, "unit": "%"}]}
{"smiles": "CC1=C2CCC3(C)C(OC4=CCCCCCC4)CCC3C2CC2CCC(=O)C=C12", "note": "(stereo not shown)", "values": [{"measurement": "I. R. (%) B* (prostate)", "setting": "ventral prostates [3]", "result": 34, "unit": "%"}, {"measurement": "I. R. (%) A* (seminal vesicle)", "setting": "seminal vesicles [4]", "result": 39, "unit": "%"}]}
{"smiles": "CC1=C2CC3(CCC2CC2C1=CCC1(C)C(=O)CCC21)OCCO3", "note": "(stereo not shown)", "values": [{"measurement": "I. R. (%) B* (prostate)", "setting": "ventral prostates [3]", "result": 25, "unit": "%"}, {"measurement": "I. R. (%) A* (seminal vesicle)", "setting": "seminal vesicles [4]", "result": 26, "unit": "%"}]}
{"smiles": "CC1=C2CCC3(C)C(O)C(CBr)CC3C2CC2CCC(=O)C=C12", "note": "(stereo not shown)", "values": [{"measurement": "I. R. (%) B* (prostate)", "setting": "ventral prostates [3]", "result": 43, "unit": "%"}, {"measurement": "I. R. (%) A* (seminal vesicle)", "setting": "seminal vesicles [4]", "result": 51, "unit": "%"}]}
{"smiles": "CC1=C2CCC3(C)C(O)C(Br)CC3C2CC2CCC(=O)C=C12", "note": "(stereo not shown)", "values": [{"measurement": "Inhibition Rate (%) of tumor weight", "setting": "[5]; [6]", "result": 11, "unit": "%"}, {"measurement": "Tumor Weight (Mean mg ± S.E.)", "setting": "[5]; [6]", "result": "2871 ± 277", "unit": "mg"}, {"measurement": "Inhibition Rate (%) of tumor weight", "setting": "[5]; [7]", "result": 40, "unit": "%"}, {"measurement": "Tumor Weight (Mean mg ± S.E.)", "setting": "[5]; [7]", "result": "1950 ± 144", "unit": "mg"}, {"measurement": "Inhibition Rate (%) of tumor weight", "setting": "[5]; [8]", "result": 69, "unit": "%"}, {"measurement": "Tumor Weight (Mean mg ± S.E.)", "setting": "[5]; [8]", "result": 1004, "unit": "mg"}]}
{"smiles": "CCC(=O)O[C@H]1CC[C@H]2[C@@H]3CCC4=CC(=O)CC[C@]4(C)[C@H]3CC[C@]12C", "note": "[Testosterone propionate, testosterone propionate, reference compound]", "values": [{"measurement": "Weight (Mean mg ± S.E.) B* (prostate)", "setting": "ventral prostates [2]; [9]", "result": "40.1 ± 1.3", "unit": "mg"}, {"measurement": "Tumor Weight (Mean mg ± S.E.)", "setting": "[5]; testosterone propionate alone, 0.1 mg/day s.c.", "result": "3241 ± 456", "unit": "mg"}, {"measurement": "Weight (Mean mg ± S.E.) A* (seminal vesicle)", "setting": "seminal vesicles [1]; [9]", "result": "26.1 ± 0.8", "unit": "mg"}]}
{"smiles": "CC1=C2CCC3(C)C(O)CCC3C2CC2CCC(=O)C=C12", "note": "(stereo not shown) [drawing 52]", "values": [{"measurement": "Weight (Mean mg ± S.E.) B* (prostate)", "setting": "ventral prostates [2]; [10]", "result": "37.9 ± 3.0", "unit": "mg"}, {"measurement": "Weight (Mean mg ± S.E.) B* (prostate)", "setting": "ventral prostates [2]; [11]", "result": "37.3 ± 3.0", "unit": "mg"}, {"measurement": "Weight (Mean mg ± S.E.) B* (prostate)", "setting": "ventral prostates [2]; [12]", "result": "27.5 ± 2.2", "unit": "mg"}, {"measurement": "I. R. (%) B* (prostate)", "setting": "ventral prostates [2]; [12]", "result": 43, "unit": "%"}, {"measurement": "Weight (Mean mg ± S.E.) B* (prostate)", "setting": "ventral prostates [2]; [13]", "result": "23.8 ± 1.6", "unit": "mg"}, {"measurement": "I. R. (%) B* (prostate)", "setting": "ventral prostates [2]; [13]", "result": 55, "unit": "%"}, {"measurement": "Weight (Mean mg ± S.E.) A* (seminal vesicle)", "setting": "seminal vesicles [1]; [10]", "result": "19.9 ± 0.6", "unit": "mg"}, {"measurement": "I. R. (%) A* (seminal vesicle)", "setting": "seminal vesicles [1]; [10]", "result": 31, "unit": "%"}, {"measurement": "Weight (Mean mg ± S.E.) A* (seminal vesicle)", "setting": "seminal vesicles [1]; [11]", "result": "20.7 ± 1.3", "unit": "mg"}, {"measurement": "I. R. (%) A* (seminal vesicle)", "setting": "seminal vesicles [1]; [11]", "result": 27, "unit": "%"}, {"measurement": "Weight (Mean mg ± S.E.) A* (seminal vesicle)", "setting": "seminal vesicles [1]; [12]", "result": "15.0 ± 0.7", "unit": "mg"}, {"measurement": "I. R. (%) A* (seminal vesicle)", "setting": "seminal vesicles [1]; [12]", "result": 56, "unit": "%"}, {"measurement": "Weight (Mean mg ± S.E.) A* (seminal vesicle)", "setting": "seminal vesicles [1]; [13]", "result": "11.4 ± 0.8", "unit": "mg"}, {"measurement": "I. R. (%) A* (seminal vesicle)", "setting": "seminal vesicles [1]; [13]", "result": 74, "unit": "%"}]}
{"smiles": "CC1=C2CCC3(C)C(O)CCC3C2CC2CCC(=O)C=C12", "note": "(stereo not shown) [drawing 56]", "values": [{"measurement": "Inhibition Rate (%) of tumor weight", "setting": "[5]; [6]", "result": 48, "unit": "%"}, {"measurement": "Tumor Weight (Mean mg ± S.E.)", "setting": "[5]; [6]", "result": "1682 ± 177", "unit": "mg"}, {"measurement": "Inhibition Rate (%) of tumor weight", "setting": "[5]; [7]", "result": 59, "unit": "%"}, {"measurement": "Tumor Weight (Mean mg ± S.E.)", "setting": "[5]; [7]", "result": "1343 ± 283", "unit": "mg"}, {"measurement": "Inhibition Rate (%) of tumor weight", "setting": "[5]; [8]", "result": 92, "unit": "%"}, {"measurement": "Tumor Weight (Mean mg ± S.E.)", "setting": "[5]; [8]", "result": 255, "unit": "mg"}]}
